This note sets out measurements from US20260265259A1, “SUBSTITUTED 6-IMIDAZOPYRIDAZINE IL-17A MODULATORS AND USES THEREOF” (DICE ALPHA, INC., priority 2023, published 2026).

A word on the IC50: it is the concentration at which inhibition is half-maximal.

The first assay concerns IL-17A/A. Put plainly: IL-17A/A HEK-Blue cell assay. Format: cell-based. The note with it: HEK-Blue, 20 h, IL-17A/A inhibition, HEK-Blue IL-17A reporter cell line, IL17A/A 5 ng/mL, SEAP read at A630, read-out: AA IC50. As to the method:
The HEK-Blue IL-17A reporter cell line (Fisher #NC1408637) was used for cell-based IL-17A/A inhibition assays. Cells were grown and prepared for assays according to the manufacturer's instructions. This cell line consists of HEK 293 cells that were designed to expressed IL-17RA, IL-17RC, and the Act1 adapter molecule, the combination of which, when stimulated by IL-17A/A or IL17A/F activates a NFκB promoter and drives expression of the recombinant Secreted Alkaline Phosphatase (SEAP) gene. Media from the cells is then added to a development reagent (Quanti-Blue Substrate, Fisher #NC9711613), and read at A630.
Compounds were dispensed in DMSO to an empty clear 384-well tissue culture plate in a titration ranging from 10 μM to 27 pM, with DMSO added to every well to a final concentration of 0.1%. Cells were then added to the plate (45 μL/well at a concentration of 280,000 cells/mL). IL17A/A (Genscript #Z03228) or IL17A/F (R&D Systems) was added to the plate to a final concentration of 5 ng/mL and a final well volume of 50 μL. The cells, compound, and IL-17A/A or IL17A/F were then incubated for 20 hours before media was removed for SEAP analysis. The resulting inhibition curve was then analyzed using Dotmatics' integrated 4-parameter fit screening protocol to generate IC50 values.
Turning to `CCn1nccc1C(=O)N[C@H](c1cn2nc(C[C@H]3C[C@@H](C(F)(F)F)CNC3=O)c(C3CC3)cc2n1)C1CCC(F)(F)CC1` [Compound 36], the IC50 was < 100 nM.
The same measure, in the same setting: the same measure for `CCn1nccc1C(=O)N[C@H](c1cn2nc(C[C@H]3C[C@@H](C(F)(F)F)CNC3=O)c(N3CCOCC3)cc2n1)C1CCC(F)(F)CC1` [Compound 37]: < 100 nM; for `O=C(N[C@H](c1cn2nc(C[C@H]3C[C@H](C(F)(F)F)CNC3=O)c(N3CCOCC3)cc2n1)C1CCC(F)(F)CC1)c1nonc1C1CC1` [Compound 38]: < 100 nM.
On the same count and under the same terms, then `O=C(N[C@H](c1cn2nc(C[C@@H]3C[C@H](C(F)(F)F)CNC3=O)c(N3CCOCC3)cc2n1)C1CCC(F)(F)CC1)c1nonc1C1CC1` [Compound 39], with > 1000 nM.
Still for that read-out and setting: then `O=C(N[C@H](c1cn2nc(C[C@H]3C[C@@H](C(F)(F)F)CNC3=O)c(N3CC(F)(F)C3)cc2n1)C1CCC(F)(F)CC1)c1nonc1C1CC1` [Compound 40], with 100 to 1000 nM.
On to `CCn1nccc1C(=O)N[C@H](c1cn2nc(C[C@H]3C[C@@H](C(F)(F)F)CNC3=O)c(N3CC(F)(F)C3)cc2n1)C1CCC(F)(F)CC1` [Compound 41], for which the IC50 lay in the range of 100 to 1000 nM.
On the same count and under the same terms, the same measure for `O=C(N[C@H](c1cn2nc(C[C@H]3C[C@@H](C(F)(F)F)CNC3=O)c(N3CC4(COC4)C3)cc2n1)C1CCC(F)(F)CC1)c1nonc1C1CC1` [Compound 42]: 100 to 1000 nM; for `CCn1nccc1C(=O)N[C@H](c1cn2nc(C[C@H]3C[C@@H](C(F)(F)F)CNC3=O)c(N3CC4(COC4)C3)cc2n1)C1CCC(F)(F)CC1` [Compound 43]: 100 to 1000 nM; for `O=C(N[C@H](c1cn2nc(C[C@H]3C[C@@H](C(F)(F)F)CNC3=O)c([C@H]3CCOC3)cc2n1)C1CCC(F)(F)CC1)c1nonc1C1CC1` [Compound 44]: < 100 nM.
Same read-out and setting: the same measure for `CCn1nccc1C(=O)N[C@H](c1cn2nc(C[C@H]3C[C@@H](C(F)(F)F)CNC3=O)c(C3CCCC3)cc2n1)C1CCC(F)(F)CC1` [Compound 46]: < 100 nM.
As for `CCn1nccc1C(=O)N[C@H](c1cn2nc(C[C@H]3C[C@@H](C(F)(F)F)CNC3=O)c(N3CC4(CCCOC4)C3)cc2n1)C1CCC(F)(F)CC1` [Compound 47], the IC50 was < 100 nM.
For `CCn1nccc1C(=O)N[C@H](c1cn2nc(C[C@H]3C[C@@H](C(F)(F)F)CNC3=O)c(N3CC4(CCOCC4)C3)cc2n1)C1CCC(F)(F)CC1` [Compound 48], the 50% inhibitory concentration (IC50) is < 100 nM.
The same measure, in the same setting: the same measure for `CCn1nccc1C(=O)N[C@H](c1cn2nc(C[C@H]3C[C@@H](C(F)(F)F)CNC3=O)c(N3CCC4(COC4)C3)cc2n1)C1CCC(F)(F)CC1` [Compound 49]: < 100 nM.
On the same count and under the same terms, then `CCn1nccc1C(=O)N[C@H](c1cn2nc(C[C@H]3C[C@@H](C(F)(F)F)CNC3=O)c(N3CC4CCC(C3)O4)cc2n1)C1CCC(F)(F)CC1` [Compound 50], with < 100 nM; and `CCn1nccc1C(=O)N[C@H](c1cn2nc(C[C@H]3C[C@@H](C(F)(F)F)CNC3=O)c(N3CC4CC3CO4)cc2n1)C1CCC(F)(F)CC1` (stereo partly drawn) [Compound 51], with < 100 nM.
Still for that read-out and setting: the same measure for `O=C(N[C@H](c1cn2nc(C[C@H]3C[C@@H](C(F)(F)F)CNC3=O)c(C3CCOCC3)cc2n1)C1CCC(F)(F)CC1)c1nonc1C1CC1` [Compound 54]: < 100 nM; for `CCn1nccc1C(=O)N[C@H](c1cn2nc(C[C@H]3C[C@@H](C(F)(F)F)CNC3=O)c(C3CCOCC3)cc2n1)[C@H]1CCCC(F)(F)C1` [Compound 55]: < 100 nM; for `CCn1nccc1C(=O)N[C@H](c1cn2nc(C[C@H]3C[C@@H](C(F)(F)F)CNC3=O)c(C3CCOCC3)cc2n1)[C@@H]1CCCC(F)(F)C1` [Compound 56]: < 100 nM.
For the compound `O=C(N[C@H](c1cn2nc(C[C@H]3C[C@@H](C(F)(F)F)CNC3=O)c(C3CCOCC3)cc2n1)[C@H]1CCCC(F)(F)C1)c1nonc1C1CC1` [Compound 57], the IC50 is < 100 nM.
For `CCn1nccc1C(=O)N[C@H](c1cn2nc(C[C@H]3C[C@@H](C(F)(F)F)CNC3=O)c(C3=CCOC3)cc2n1)C1CCC(F)(F)CC1` [Compound 58], the IC50 was 100 to 1000 nM.
Turning to `O=C(N[C@H](c1cn2nc(C[C@H]3C[C@@H](C(F)(F)F)CNC3=O)c(C3CCOCC3)cc2n1)[C@@H]1CCCC(F)(F)C1)c1nonc1C1CC1` [Compound 59], the IC50 is < 100 nM.
`CCn1nccc1C(=O)N[C@H](c1cn2nc(C[C@H]3C[C@@H](C(F)(F)F)CNC3=O)c(C3CCN(C)CC3)cc2n1)C1CCC(F)(F)CC1` [Compound 60]: the IC50 lay within 100 to 1000 nM.
`CCn1nccc1C(=O)N[C@H](c1cn2nc(C[C@H]3C[C@@H](C(F)(F)F)CNC3=O)c(C3CCN(C)C3)cc2n1)C1CCC(F)(F)CC1` (stereo partly drawn) [Compound 61]: the IC50 was in the range of 100 to 1000 nM.
On the same count and under the same terms, then `CCn1nccc1C(=O)N[C@H](c1cn2nc(C[C@H]3C[C@@H](C(F)(F)F)CNC3=O)c(C3CCCOC3)cc2n1)[C@H]1CCCC(F)(F)C1` (stereo partly drawn) [Compound 63], with < 100 nM; and `CCn1nccc1C(=O)N[C@H](c1cn2nc(C[C@H]3C[C@@H](C(F)(F)F)CNC3=O)c(C3CCCOC3)cc2n1)[C@@H]1CCCC(F)(F)C1` (stereo partly drawn) [Compound 64], with < 100 nM; and `CCn1nccc1C(=O)N[C@H](c1cn2nc(C[C@H]3C[C@@H](C(F)(F)F)CNC3=O)c(C3CCOC3)cc2n1)[C@H]1CCCC(F)(F)C1` (stereo partly drawn) [Compound 67], with < 100 nM.
Take `CCn1nccc1C(=O)N[C@H](c1cn2nc(C[C@H]3C[C@@H](C(F)(F)F)CNC3=O)c(C3CCOC3)cc2n1)[C@@H]1CCCC(F)(F)C1` (stereo partly drawn) [Compound 68]: the IC50 was < 100 nM.
On the same count and under the same terms, then `O=C(N[C@H](c1cn2nc(C[C@H]3C[C@@H](C(F)(F)F)CNC3=O)c(C3CCOC3)cc2n1)[C@H]1CCCC(F)(F)C1)c1nonc1C1CC1` (stereo partly drawn) [Compound 69], with < 100 nM; and `O=C(N[C@H](c1cn2nc(C[C@H]3C[C@@H](C(F)(F)F)CNC3=O)c(C3CCOC3)cc2n1)[C@@H]1CCCC(F)(F)C1)c1nonc1C1CC1` (stereo partly drawn) [Compound 70], with < 100 nM; and `CC(C)n1nccc1C(=O)N[C@H](c1cn2nc(C[C@H]3C[C@@H](C(F)(F)F)CNC3=O)c(C3CCOCC3)cc2n1)C1CCC(F)(F)CC1` [Compound 75], with < 100 nM.
Turning to `CCn1nccc1C(=O)N[C@H](c1cn2nc(C[C@H]3C[C@@H](C(F)(F)F)CNC3=O)c(C3CCCCC3)cc2n1)C1CCC(F)(F)CC1` [Compound 76], the IC50 is < 100 nM.
For the compound `CCn1nccc1C(=O)N[C@H](c1cn2nc(C[C@H]3C[C@@H](C(F)(F)F)CNC3=O)c(N3CCC(OC)C3)cc2n1)C1CCC(F)(F)CC1` (stereo partly drawn) [Compound 77], the IC50 is < 100 nM.
Same read-out and setting: then `CCn1nccc1C(=O)N[C@H](c1cn2nc(C[C@H]3C[C@@H](C(F)(F)F)CNC3=O)c(N3CC(OC)C3)cc2n1)C1CCC(F)(F)CC1` [Compound 79], with < 100 nM.
Consider `CCn1nccc1C(=O)N[C@H](c1cn2nc(C[C@H]3C[C@@H](C(F)(F)F)CNC3=O)c(N3CCN(C4CC4)CC3)cc2n1)C1CCC(F)(F)CC1` [Compound 80], for which the IC50 is < 100 nM.
The same measure, in the same setting: the same measure for `CCn1nccc1C(=O)N[C@H](c1cn2nc(C[C@H]3C[C@@H](C(F)(F)F)CNC3=O)c(N3CCOC4(CC4)C3)cc2n1)C1CCC(F)(F)CC1` [Compound 81]: < 100 nM.
Same read-out and setting: then `CCn1nccc1C(=O)N[C@H](c1cn2nc(C[C@H]3C[C@@H](C(F)(F)F)CNC3=O)c(N3CCN(C)C4(CC4)C3)cc2n1)C1CCC(F)(F)CC1` [Compound 82], with < 100 nM.

Staying with this assay, now noted: IL-17A/A inhibition, HEK-Blue IL-17A reporter cell line, IL17A/A 5 ng/mL, 20 hours, SEAP read at A630; read-out: AA IC50.
On to `CCn1nccc1C(=O)N[C@H](c1cn2nc(C[C@H]3C[C@@H](C(F)(F)F)CNC3=O)c(N3CC4CC3CO4)cc2n1)C1CCC(F)(F)CC1` (stereo partly drawn) [Compound 52], for which the IC50 was < 100 nM.
Same read-out and setting: then `CCn1nccc1C(=O)N[C@H](c1cn2nc(C[C@H]3C[C@@H](C(F)(F)F)CNC3=O)c(C3CCN(C)C3)cc2n1)C1CCC(F)(F)CC1` (stereo partly drawn) [Compound 62], with 100 to 1000 nM.
Same read-out and setting: the same measure for `CCn1nccc1C(=O)N[C@H](c1cn2nc(C[C@H]3C[C@@H](C(F)(F)F)CNC3=O)c(C3CCCOC3)cc2n1)[C@H]1CCCC(F)(F)C1` (stereo partly drawn) [Compound 65]: < 100 nM; for `CCn1nccc1C(=O)N[C@H](c1cn2nc(C[C@H]3C[C@@H](C(F)(F)F)CNC3=O)c(C3CCCOC3)cc2n1)[C@@H]1CCCC(F)(F)C1` (stereo partly drawn) [Compound 66]: < 100 nM.
The same measure, in the same setting: then `CCn1nccc1C(=O)N[C@H](c1cn2nc(C[C@H]3C[C@@H](C(F)(F)F)CNC3=O)c(C3CCOC3)cc2n1)[C@H]1CCCC(F)(F)C1` (stereo partly drawn) [Compound 71], with < 100 nM; and `CCn1nccc1C(=O)N[C@H](c1cn2nc(C[C@H]3C[C@@H](C(F)(F)F)CNC3=O)c(C3CCOC3)cc2n1)[C@@H]1CCCC(F)(F)C1` (stereo partly drawn) [Compound 72], with < 100 nM.
For `O=C(N[C@H](c1cn2nc(C[C@H]3C[C@@H](C(F)(F)F)CNC3=O)c(C3CCOC3)cc2n1)[C@H]1CCCC(F)(F)C1)c1nonc1C1CC1` (stereo partly drawn) [Compound 73], the IC50 is < 100 nM.
On the same count and under the same terms, the same measure for `O=C(N[C@H](c1cn2nc(C[C@H]3C[C@@H](C(F)(F)F)CNC3=O)c(C3CCOC3)cc2n1)[C@@H]1CCCC(F)(F)C1)c1nonc1C1CC1` (stereo partly drawn) [Compound 74]: < 100 nM; for `CCn1nccc1C(=O)N[C@H](c1cn2nc(C[C@H]3C[C@@H](C(F)(F)F)CNC3=O)c(N3CCC(OC)C3)cc2n1)C1CCC(F)(F)CC1` (stereo partly drawn) [Compound 78]: < 100 nM.
